One data set concerns the target T1, GSPT1 (Homo sapiens, UniProt P15170+Q96SW2).
T1 construct: endogenous in cells
Description: Western blot of GSPT1 protein in SNU—C4 3xFLAG-PXR KI cells. In kind it is cell-based. How it is done: (§1) The following day, DMSO or compounds were added to result in 0.5% DMSO and the indicated compound concentrations, and cells were incubated for the indicated time points. Cells were lysed and subjected to western blotting as above using antibodies against FLAG (Sigma-Aldrich, cat. #F3165, 1:2,000 dilution), GSPT1 (Abcam, cat. #ab126090, 1:4,000 dilution), and R-Actin (Cell Signaling Technology, cat. #4967, 1:2,000 dilution).

The target of a further data set is T2, HiBiT-FKBP12^F36V-PXR (Homo sapiens, UniProt O75469+P62942, F37V).
T2 construct: expressed in transfected cells; host or cells: HepG2 cells (transient, Lipofectamine 3000)
T2 sequence (P62942+O75469 fused P62942:F37V): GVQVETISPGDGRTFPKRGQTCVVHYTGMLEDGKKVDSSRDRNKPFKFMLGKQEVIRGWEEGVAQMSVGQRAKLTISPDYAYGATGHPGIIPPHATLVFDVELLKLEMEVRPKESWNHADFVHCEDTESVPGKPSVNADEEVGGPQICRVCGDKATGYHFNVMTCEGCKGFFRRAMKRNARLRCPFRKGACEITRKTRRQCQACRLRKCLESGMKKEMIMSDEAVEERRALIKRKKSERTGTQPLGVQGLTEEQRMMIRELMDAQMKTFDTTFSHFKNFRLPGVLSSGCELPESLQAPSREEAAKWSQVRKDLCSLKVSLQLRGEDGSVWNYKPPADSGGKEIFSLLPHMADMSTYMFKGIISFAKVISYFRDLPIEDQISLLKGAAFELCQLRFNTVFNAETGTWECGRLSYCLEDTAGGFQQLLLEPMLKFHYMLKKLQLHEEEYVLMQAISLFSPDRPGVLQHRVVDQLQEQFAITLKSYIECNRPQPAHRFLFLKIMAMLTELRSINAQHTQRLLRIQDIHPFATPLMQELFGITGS
T2 sequence (Q96SW2 whole entry partner): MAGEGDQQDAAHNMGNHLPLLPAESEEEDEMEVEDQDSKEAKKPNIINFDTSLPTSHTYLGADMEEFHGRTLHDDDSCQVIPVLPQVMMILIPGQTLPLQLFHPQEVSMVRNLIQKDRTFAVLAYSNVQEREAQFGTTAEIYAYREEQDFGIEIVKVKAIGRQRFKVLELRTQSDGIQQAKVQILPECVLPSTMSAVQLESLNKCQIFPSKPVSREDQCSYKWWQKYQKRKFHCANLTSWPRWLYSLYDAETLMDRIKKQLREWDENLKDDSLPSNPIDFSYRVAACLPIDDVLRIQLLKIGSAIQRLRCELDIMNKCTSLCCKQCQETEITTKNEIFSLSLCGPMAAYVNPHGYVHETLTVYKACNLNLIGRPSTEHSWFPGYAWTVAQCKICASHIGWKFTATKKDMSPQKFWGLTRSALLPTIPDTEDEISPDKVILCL
The data set can be described thus: HiBiT assay for degradation of overexpressed protein in HepG2 cells. The conditions noted are these: HepG2, HiBiT-FKBP12^F36V-PXR, 24 h, FIG. 4A. In kind it is cell-based. How it is done:
HepG2 cells (5×10^6 cells/dish) were plated in tissue culture-treated 10 cm dishes in 10 mL EMEM with 10% FBS. The next day, cells were transfected with 5 μg pcDNA3-HiBiT-FKBP^F36V-2xHA-PXR and either 5 μg pcDNA3 vector or 5 μg pcDNA3-HA-CRBN using Lipofectamine 3000 (Thermo Fisher Scientific). After 24 h, cells were trypsinized, resuspended in assay media, and plated in white tissue culture-treated 384-well plates (1.5×10^4 cells/well in 25 μL medium). […] The plates were incubated for 24 h, and the Nano-Glo HiBiT Lytic Detection System (Promega) and an EnVision microplate reader were used to measure HiBiT signal. Results are reported as fold change relative to DMSO control cells.
To establish a method for discovery of PXR degraders in the absence of a known PXR-degrading control, the degradation tag (dTAG) system was used. With this method, a protein of interest (PXR) is fused to a cytosolic prolyl isomerase, FKBP12, with Phe36 mutated to Val (FKBP12^F36V) (FIG. 2A). A PROTAC molecule, dTAG-13 (FIG. 2B), is then used to induce degradation of the fusion protein through recruitment of the CUL4-RBX1-DDB1-CRBN (CRL4^CRBN) E3 ubiquitin ligase, without affecting the cellular FKBP12 protein. An HA tag was added for western blot detection, and a HiBiT tag was fused to the N-terminus to allow high-throughput plate-based quantification of HiBiT-FKBP12^F36V-PXR protein levels (FIG. 2A). […] This was also observed when the HA tag was detected by western blot (FIG. 2D). The HiBiT detection was more sensitive to protein level changes than western blot, and, importantly, overexpression of CRBN was required to achieve dTAG-13-mediated degradation of the overexpressed HiBiT-FKBP12^F36V-PXR protein.

In data set [1] the target is T3, PXR (Homo sapiens, UniProt O75469).
T3 sequence (O75469 1-434): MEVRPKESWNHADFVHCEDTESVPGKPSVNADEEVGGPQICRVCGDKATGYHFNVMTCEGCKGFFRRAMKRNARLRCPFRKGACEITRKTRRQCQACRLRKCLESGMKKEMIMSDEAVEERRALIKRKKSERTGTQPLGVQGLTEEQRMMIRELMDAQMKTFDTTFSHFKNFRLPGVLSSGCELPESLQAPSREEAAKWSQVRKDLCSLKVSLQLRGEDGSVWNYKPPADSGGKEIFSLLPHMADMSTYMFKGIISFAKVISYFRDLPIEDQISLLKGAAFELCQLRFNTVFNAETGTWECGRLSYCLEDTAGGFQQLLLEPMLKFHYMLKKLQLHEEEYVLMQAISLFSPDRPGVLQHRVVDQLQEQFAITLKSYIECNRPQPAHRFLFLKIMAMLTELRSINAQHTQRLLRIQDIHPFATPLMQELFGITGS
Description: cell-based hPXR inverse agonistic assay.

The target of data set [2] is T3, PXR. The data set can be described thus: Western blot of endogenous 3xFLAG-PXR protein in SNU—C4 3xFLAG-PXR KI cells. In kind it is cell-based. Further details: To assess SJPYT-195 activity against endogenous PXR, CRISPR-Cas9 was used; endogenous in cells. How it is done: as §1
The target in data set [3] is T3, PXR. The data set can be described thus: cell-based hPXR antagonistic assay.

“Also recorded” adds a separate entry of the source.

T1 sequence (P15170 1-637 isoform P15170-3): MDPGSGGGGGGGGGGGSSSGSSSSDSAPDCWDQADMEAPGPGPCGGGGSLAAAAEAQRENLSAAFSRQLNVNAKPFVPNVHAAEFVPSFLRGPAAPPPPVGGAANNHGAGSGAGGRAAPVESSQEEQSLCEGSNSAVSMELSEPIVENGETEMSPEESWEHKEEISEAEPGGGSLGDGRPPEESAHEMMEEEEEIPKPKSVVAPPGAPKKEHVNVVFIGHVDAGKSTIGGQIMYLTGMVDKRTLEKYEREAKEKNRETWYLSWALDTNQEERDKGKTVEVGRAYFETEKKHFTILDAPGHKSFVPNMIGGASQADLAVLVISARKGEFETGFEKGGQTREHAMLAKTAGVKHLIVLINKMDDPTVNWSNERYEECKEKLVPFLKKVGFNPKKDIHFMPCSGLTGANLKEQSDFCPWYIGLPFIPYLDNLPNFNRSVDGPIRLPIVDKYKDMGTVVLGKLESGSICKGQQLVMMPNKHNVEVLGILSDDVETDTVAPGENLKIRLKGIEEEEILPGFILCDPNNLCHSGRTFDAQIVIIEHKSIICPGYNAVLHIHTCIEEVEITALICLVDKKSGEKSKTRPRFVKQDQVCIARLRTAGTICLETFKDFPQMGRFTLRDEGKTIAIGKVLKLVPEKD
T1 sequence (Q96SW2 whole entry): as the sequence (Q96SW2 whole entry partner) above
T1 sequence (Q16531 whole entry partner): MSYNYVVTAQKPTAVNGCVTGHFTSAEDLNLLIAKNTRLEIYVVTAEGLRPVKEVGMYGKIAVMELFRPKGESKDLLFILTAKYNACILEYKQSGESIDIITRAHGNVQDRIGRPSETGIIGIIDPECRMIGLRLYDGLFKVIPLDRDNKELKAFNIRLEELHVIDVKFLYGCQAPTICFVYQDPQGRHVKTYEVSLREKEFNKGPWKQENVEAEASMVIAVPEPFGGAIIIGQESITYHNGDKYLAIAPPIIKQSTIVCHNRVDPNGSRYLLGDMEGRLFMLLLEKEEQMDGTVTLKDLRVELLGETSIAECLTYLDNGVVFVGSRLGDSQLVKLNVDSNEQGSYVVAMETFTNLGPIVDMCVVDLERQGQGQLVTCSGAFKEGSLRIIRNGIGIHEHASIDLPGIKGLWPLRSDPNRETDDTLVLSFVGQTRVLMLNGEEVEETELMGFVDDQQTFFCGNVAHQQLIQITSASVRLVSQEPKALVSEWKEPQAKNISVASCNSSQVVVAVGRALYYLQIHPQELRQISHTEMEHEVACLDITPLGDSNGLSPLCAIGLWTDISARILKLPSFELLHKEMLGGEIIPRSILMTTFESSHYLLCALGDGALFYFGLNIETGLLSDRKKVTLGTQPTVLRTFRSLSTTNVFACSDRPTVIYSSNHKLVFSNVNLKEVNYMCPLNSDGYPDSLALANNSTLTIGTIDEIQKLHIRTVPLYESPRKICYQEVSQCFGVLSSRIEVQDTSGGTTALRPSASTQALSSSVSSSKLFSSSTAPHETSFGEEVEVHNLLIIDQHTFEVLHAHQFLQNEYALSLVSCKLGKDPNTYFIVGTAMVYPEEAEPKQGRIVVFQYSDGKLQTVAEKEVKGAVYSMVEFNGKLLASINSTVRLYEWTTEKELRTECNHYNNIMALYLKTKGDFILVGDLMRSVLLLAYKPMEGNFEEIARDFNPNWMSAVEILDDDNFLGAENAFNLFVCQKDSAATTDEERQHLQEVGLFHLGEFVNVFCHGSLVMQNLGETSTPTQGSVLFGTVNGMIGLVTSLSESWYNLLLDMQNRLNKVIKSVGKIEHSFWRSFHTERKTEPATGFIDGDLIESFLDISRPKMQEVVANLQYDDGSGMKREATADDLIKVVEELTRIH

Consider `COc1ccc(OC)c(-n2nnc(C(=O)Nc3cc(Oc4cccc5c4C(=O)N(C4CCC(=O)NC4=O)C5=O)cc(C(C)(C)C)c3)c2C)c1` (stereo not shown) [Compound M4, N-(3-(tert-butyl)-5-((2-(2,6-dioxopiperidin-3-yl)-1,3-dioxoisoindolin-4-yl)oxy)phenyl)-1-(2,5-dimethoxyphenyl)-5-methyl-1H-1,2,3-triazole-4-carboxamide], for which the “GSPT1 Loss at 10 μM (% ± SD)” value at GSPT1 (10 μM compound, calculated from western blots FIG. 9A) is listed as 100 ± 0.1%. Moreover, the “activity on GSPT1, fold lower than that of CC-885” value at GSPT1 (western blot, FIG. 6D-E) is listed as approximately 100 fold. Further, the “GSPT1 degradation (in words)” value on GSPT1 (western blot, SNU—C4 3xFLAG-PXR KI cells, listed as SJPYT-195) is “deplete GSPT1 at concentrations much lower than those required to reduce PXR; also recorded: most potent inducer of GSPT1 degradation”. In addition, the “HiBiT signal (screen of PXR ligand-CRBN ligand compounds)” value on HiBiT-FKBP12^F36V-PXR is given as “reduced HiBiT signal”. Also, the results for the inhibition at 10 µM on PXR [1] (read-out: Inverse agonist (% inhibition at 10 μM)) and on PXR [3] (read-out: Antagonist (% inhibition at 10 μM)) were 133% and 96%, respectively. The IC50 on PXR [1] (read-out: Inverse agonist (IC50/μM)) turned out to be 0.18 ± 0.055 µM; on PXR [3] (read-out: Antagonist (IC50/μM)), 0.94 ± 0.2 µM. Besides, the “reduction of PXR protein” value at PXR [2] (5 μM, 12 h) is approximately 50%. Further, the “maximum degradation efficacy (DNax) of endogenous PXR protein” value on PXR [2] (SNU—C4 3xFLAG-PXR KI cells, FIG. 4B) was 85% ±1. Further, the DC50 on PXR [2] (SNU—C4 3xFLAG-PXR KI cells, FIG. 4B, read-out: half maximal degradation concentration (DC50) of endogenous PXR protein) was 310 ± 130 nM. Besides, the “kinetics of PXR protein decrease” value on PXR [2] (time-course, FIG. 5A-B) is reported as “quite slow”. Besides, the “PXR protein level (in words)” value on PXR [2] (western blot, SNU—C4 3xFLAG-PXR KI cells) is “reduced PXR to a greater extent than CC-885”.

The values above are taken from US20260116867A1, “PROTEOLYSIS TARGETING CHIMERAS FOR HUMAN PREGNANE X RECEPTOR AND FOR DEGRADATION OF GSPT1” (ST. JUDE CHILDREN'S RESEARCH HOSPITAL, priority 2022, published 2026).
